{"source": "patent US20250381165A1", "about": "“Method of Use for Benzofuran Compounds” (Tampa Bay Research Institute, Inc., priority 2024, published 2025)", "key": {"[1]": {"tested_on": "freshly isolated murine splenocytes", "assay": "CellTiter-Glo cell viability, primary splenocytes", "assay_type": "cell-based", "method": "BzFβ was then examined for its effect on the viability of several murine and human cell lines and primary murine splenocytes. The cytotoxicity of BzFβ was assessed using the CellTiter-Glo […] assay system according to manufacturer's instructions to determine BzFβ's effect on the viability of several murine and human cell lines and primary murine splenocytes.\nSix- to ten-week-old female C57BL/6NCrl mice (Charles River Laboratories, Wilmington, MA; cat. no. 027) were maintained in accord with the NIH Guide for the Care and Use of Laboratory Animals. Mice were maintained in an INOVIVE individually ventilated cage system with 3 mice per cage containing 100% virgin wood pulp bedding (Harlan Teklad™, Inotiv Inc., West Lafayette, IN; cat. no. 7099). Water and food (Harlan Teklad™, Inotiv Inc., West Lafayette, IN; cat. no. 8640) were available ad libitum. […] The cell count was determined using the MUSE cell viability kit (MCH600103) and MUSE Cell Analyzer (Luminex Corp, Austin TX). […]\nThe cytotoxicity of BzFβ was assessed using the CellTiter-Glo cell […] viability assay system […] cat. no. […] CellTiter-Glo was added 1:1 in the media and the level of chemiluminescence was measured using luminescence at wavelengths of 200 nm to 700 nm through a photomultiplier on BioTek's Synergy HTX multimode microplate reader. […]"}, "[2]": {"tested_on": "B16F10 cells (B3Z activation)", "assay": "B3Z activation by B16F10 (OVA or SIINFEKL)", "assay_type": "cell-based, murine", "method": "B16F10 were plated at a density of 2.5 or 5×10^4 cells/well (100 μL/well in 96 well plates) and cultured overnight in cDMEM. The cells were washed with DPBS and then treated for 1-24 h with the indicated concentrations of BzFβ or co-treated with the indicated concentrations of BzFβ and 1.0 mg/mL OVA, suspended in complete media. Cells treated with BzFβ only were pulsed with 2 nM SIINFEKL pulsed for 1 h. The cells were then co-cultured with equal number of B3Z cells at 37° C. for 19 h.\nIn this experiment the activity of the dipeptide, GL, was also examined, as it has been previously reported to function as a peptide exchange factor. (Saini, et al., Dipeptides catalyze rapid peptide exchange on MHC class I molecules. Proc Natl Acad Sci USA. 2015 Jan. 6; 112(1):202-7; Saini, et al., Empty peptide-receptive MHC class I molecules for efficient detection of antigen-specific T cells. Sci Immunol. 2019 Jul. 19; 4(37):eaau9039). B16F10 were plated at a density of 2.5 or 5×10^4 cells/well (100 μL/well in 96 well plates) and cultured overnight in cDMEM. The cells were washed with DPBS and then co-treated for 24 h with 10 mM (1.88 mg/mL) of GL and 1.0 mg/mL OVA or were pulsed with 2 nM SIINFEKL for 1 h following treatment with 10 mM GL in complete media. The cells were then co-cultured with an equal number of B3Z cells at 37° C. for 19 h."}, "H-2Kb on DC2.4": {"molecular_target": "T1, H-2Kb on DC2.4 (Mus musculus, UniProt P01901)", "T1 construct": "DC2.4 are a C57Bl/6 lineage murine cell line and as such they express MHC class I H-2Kb and H-2Db; endogenous in cells; host or cells: DC2.4", "T1 sequence (P01901 22-369)": "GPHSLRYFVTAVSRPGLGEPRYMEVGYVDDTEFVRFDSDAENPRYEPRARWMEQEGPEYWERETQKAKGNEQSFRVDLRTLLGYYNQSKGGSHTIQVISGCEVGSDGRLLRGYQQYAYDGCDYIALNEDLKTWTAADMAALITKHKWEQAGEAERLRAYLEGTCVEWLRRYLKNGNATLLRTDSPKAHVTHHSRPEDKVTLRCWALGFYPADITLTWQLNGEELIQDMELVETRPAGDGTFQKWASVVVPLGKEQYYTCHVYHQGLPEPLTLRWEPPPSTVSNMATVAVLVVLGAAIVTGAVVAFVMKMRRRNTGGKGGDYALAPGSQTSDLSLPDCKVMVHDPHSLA", "T1 sequence (P01887 21-119 partner)": "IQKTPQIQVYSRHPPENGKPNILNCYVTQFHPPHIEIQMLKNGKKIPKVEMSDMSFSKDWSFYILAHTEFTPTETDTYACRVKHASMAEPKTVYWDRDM", "assay": "FITC-labeled Trp2 peptide binding to DC2.4", "assay_type": "cell-based, murine", "settings": "50 μg/mL BzFβ 1 h, 1 h pulse 0-1000 nM peptide", "method": "Cells were cultured as previously described and treated for various times as indicated in results and figure legends. Cells were centrifuged and washed using cold FACS buffer (DPBS with 5% FBS, 2 mM EDTA, 0.1% sodium azide). Cells were stained with N-terminal fluorophore-conjugated […] FITC labeled Trp2180-188 peptide ([…]) and N-terminal FITC labeled H-2Db peptide […] (Anaspec) cells were incubated with Fc block (bioLegend™; cat. no. 101320) for 10 min to 15 min to inhibit non-specific binding, followed by peptide for 1-4 h, before washing and analysis. After washing, the cells were subjected to flow cytometric analysis with the Attune NxT Flow Cytometer (Invitrogen™). Cells were gated based on live single-cell populations and positives were assessed using isotype controls and fluor-minus-one analysis when needed. Data were analyzed using the Attune NxT software or FlowJo versions 10.7 and 10.8.\nWhile H-2Kb is the dominant haplotype, BzFβ was investigated to determine if the compound could assist peptide binding on H-2Kb and H-2Db. […]"}}, "note": "“Also recorded” adds a separate entry of the source."}
{"smiles": "O=C(O)/C=C/c1ccc2occc2c1", "note": "[BzFβ, (2E)-3-(1-benzofuran-5-yl)prop-2-enoic acid]", "values": [{"measurement": "IC50", "setting": "[1]; Mus musculus, Splenocyte, freshly isolated murine splenocytes, CellTiter-Glo", "result": 402, "unit": "µM"}, {"measurement": "viability of primary murine splenocytes", "setting": "[1]; concentrations below 50 µg/mL", "result": "minimally affected"}, {"measurement": "B3Z activation by B16F10, OVA", "setting": "[2]; co-treatment with 1 mg/mL OVA, GL at 10 mM", "result": "failed to activate the B3Z cells"}, {"measurement": "B3Z activation by B16F10, SIINFEKL", "setting": "[2]; pre-treatment, 1 h pulse 2 nM SIINFEKL, BzFβ 25, 50 μg, GL 10 mM", "result": "significantly activate B3Z"}, {"measurement": "binding of FITC labeled Trp2 peptide to H-2Kb", "setting": "H-2Kb on DC2.4", "result": "enhance peptide binding on both haplotypes; also recorded: enhancement of the direct binding"}]}
